Patent US20150175599A1, “FAAH Inhibitors” (Ironwood Pharmaceuticals, Inc., priority 2010, published 2015)

Assay: Pharmacokinetic study, plasma level 2 hours after oral dosing in rats
Assay type: in vivo
Procedure: Pharmacokinetic studies were conducted to determine absorption and distribution profiles of the disclosed compounds which were orally administered to rats.
Compounds were formulated in a 1% DMA/99% Vitamin E TPGS vehicle. Prepared compounds were dosed via oral gavage (PO). Following the appropriate pretreatment time of 2 hours, rats were anesthetized with isoflurane gas. Blood was collected into tubes containing EDTA via retro-orbital eye bleed. Whole blood was spun in a micro-centrifuge at approximately 13,000 rpm for 5 minutes at room temperature. Separated plasma was subsequently aliquoted into eppendorf tubes. Samples were stored at −80° C. until prepped for analysis.
Plasma samples were thawed and the required amount of plasma for standards, blanks and dilutions were made. The dilutions were prepared before plating. Preparation of crash solution included cold acetonitrile+0.1% formic acid and 25 ng/mL of a FAAH inhibitor used as internal standard. solvent standards of the FAAH inhibitor being studied were preparation at 10, 30, 100, 300, 1000, 3000, 10000, 30000, 100000, and 300000 ng/mL in DMSO. Then a plasma standard curve was generated from the solvent standards (final concentrations of standards in plasma were: 0.1, 0.3, 1, 3, 10, 30, 100, 300, 1000, 3000 ng/mL). 50 μL of each plasma sample/dilution, standard, or blank was transferred into 96-well plates. To each well, 200 μL of cold crash solution was added. The plate was covered and gently vortexed. The plate was centrifuged at 3500 rpm, 4° C. for 10 min. 200 μL of each supernatant was transferred into new plates. The plates were dried under nitrogen in a TurboVap at 55° C. The sample in each well was re-suspended with 100 μL of 30% acetonitrile, covered and vortexed gently. The well solutions were analyzed by the LC/MS/MS conditions and specifications below.
HPLC column was a Clipeus C8, 2.1×30 mm, 5 μm, with Basic 8 guard column using 20 μL injections. Mobile phase used was mobile phase A: 0.1% Formic Acid in water and mobile phase B: 0.1% Formic Acid in 85:10:5 ACN:IPA:H2O. The flow rate for the run was 0.5 mL/min and the gradient for the 4 minute total run time was: 0.0 minutes

COc1cc(NC(=O)C(=O)c2c(C)n(Cc3ccc(Cl)cc3)c3ccc(N)cc23)ccn1 [Compound 20, 2-(5-amino-1-(4-chlorobenzyl)-2-methyl-1H-indol-3-yl)-N-(2-methoxypyridin-4-yl)-2-oxoacetamide]
2 hr plasma level-ng/mL (rat, 10 mg/kg PO, 2 hr): C (C = between 100 nM and 1000 nM)

COc1cnc2c(c1)c(C(=O)C(=O)Nc1ccnc(OC)c1)c(C)n2Cc1ccc(Cl)cn1 [Compound 41, 2-(1-((5-chloropyridin-2-yl)methyl)-5-methoxy-2-methyl-1H-pyrrolo[2,3-b]pyridin-3-yl)-N-(2-methoxypyridin-4-yl)-2-oxoacetamide]
2 hr plasma level-ng/mL (rat, 10 mg/kg PO, 2 hr): D (D = greater than 1000 nM)

COc1ccc(Cn2c(C)c(C(=O)C(=O)Nc3ccnc(OC)c3)c3cc(OC)c(C)cc32)nc1 [Compound 96, 2-(5-methoxy-1-((5-methoxypyridin-2-yl)methyl)-2,6-dimethyl-1H-indol-3-yl)-N-(2-methoxypyridin-4-yl)-2-oxoacetamide]
2 hr plasma level-ng/mL (rat, 10 mg/kg PO, 2 hr): C (C = between 100 nM and 1000 nM)

COc1cc(NC(=O)C(=O)c2c(C)n(Cc3ncc(Cl)cc3F)c3ccc(C)cc23)ccn1 [Compound 33, 2-(1-((5-chloro-3-fluoropyridin-2-yl)methyl)-2,5-dimethyl-1H-indol-3-yl)-N-(2-methoxypyridin-4-yl)-2-oxoacetamide]
2 hr plasma level-ng/mL (rat, 10 mg/kg PO, 2 hr): C (C = between 100 nM and 1000 nM)

COc1cc(NC(=O)C(=O)c2c(C)n(Cc3ncc(Cl)cc3F)c3cc(Cl)c(OC)cc23)ccn1 [Compound 97, 2-(6-chloro-1-((5-chloro-3-fluoropyridin-2-yl)methyl)-5-methoxy-2-methyl-1H-indol-3-yl)-N-(2-methoxypyridin-4-yl)-2-oxoacetamide]
2 hr plasma level-ng/mL (rat, 10 mg/kg PO, 2 hr): C (C = between 100 nM and 1000 nM)

COc1cc(NC(=O)C(=O)c2c(C)n(Cc3ccc(Cl)cc3)c3ccc([N+](=O)[O-])cc23)ccn1 [Compound 19, 2-(1-(4-chlorobenzyl)-2-methyl-5-nitro-1H-indol-3-yl)-N-(2-methoxypyridin-4-yl)-2-oxoacetamide]
2 hr plasma level-ng/mL (rat, 10 mg/kg PO, 2 hr): C (C = between 100 nM and 1000 nM)

COc1cc(NC(=O)C(=O)c2c(C)n(Cc3ccc(Cl)cn3)c3ncc(C)cc23)ccn1 [Compound 75, (1-((5-chloropyridin-2-yl)methyl)-2,5-dimethyl-1H-pyrrolo[2,3-b]pyridin-3-yl)-N-(2-methoxypyridin-4-yl)-2-oxoacetamide]
2 hr plasma level-ng/mL (rat, 10 mg/kg PO, 2 hr): D (D = greater than 1000 nM)

COc1cc(NC(=O)C(=O)c2c(C)n(Cc3ccc(Cl)cn3)c3cc(OC)c(Cl)cc23)ccn1 [Compound 67, 2-(5-chloro-1-((5-chloropyridin-2-yl)methyl)-6-methoxy-2-methyl-1H-indol-3-yl)-N-(2-methoxypyridin-4-yl)-2-oxoacetamide]
2 hr plasma level-ng/mL (rat, 10 mg/kg PO, 2 hr): D (D = greater than 1000 nM)

COc1cc(NC(=O)C(=O)c2c(C)n(Cc3ncc(Cl)cc3Cl)c3ccccc23)ccn1 [Compound 31, 2-(1-((3,5-dichloropyridin-2-yl)methyl)-2-methyl-1H-indol-3-yl)-N-(2-methoxypyridin-4-yl)-2-oxoacetamide]
2 hr plasma level-ng/mL (rat, 10 mg/kg PO, 2 hr): D (D = greater than 1000 nM)

COc1cc(NC(=O)C(=O)c2c(C)n(Cc3ccc(Cl)cc3)c3cc(OC)c(OC)cc23)ccn1 [Compound 44, 2-(1-(4-chlorobenzyl)-5,6-dimethoxy-2-methyl-1H-indol-3-yl)-N-(2-methoxypyridin-4-yl)-2-oxoacetamide]
2 hr plasma level-ng/mL (rat, 10 mg/kg PO, 2 hr): C (C = between 100 nM and 1000 nM)

COc1cc(NC(=O)C(=O)c2c(C)n(Cc3ncc(Cl)cc3Cl)c3ccc(C)cc23)ccn1 [Compound 30, 2-(1-((3,5-dichloropyridin-2-yl)methyl)-2,5-dimethyl-1H-indol-3-yl)-N-(2-methoxypyridin-4-yl)-2-oxoacetamide]
2 hr plasma level-ng/mL (rat, 10 mg/kg PO, 2 hr): C (C = between 100 nM and 1000 nM)
